# From patent publication US8383640B2, “Substituted pyrimidine ether compounds and use thereof” (priority 2007, dated 2013)
# Read-outs that look alike come from different tables or passages of the source.
# Legend:
# rice blast = type: cell-based; conditions: in vitro, 24 hours incubation
# tomato late blight = type: cell-based; conditions: in vitro, 25 mg/L, 24 hours incubation
# cucumber downy mildew = test: Fungicidal activity in vivo, cucumber downy mildew; conditions: plants sprayed, scored after 1 week
# Experimental: (§1) Determination of Fungicidal Activity In Vivo:
# (§2) Compounds were disolved into acetone to receive stock solution. Deionized water containing 0.1% Tween 80 was added in the previous solution to receive 20 ml test solution. Plants are sprayed by using a turntable sprayer. After 24 hours, plants were innoculated with a conidial suspension. Plants were then transferred into a dew chamber [R.H. (relative humidity)>95%] for infection. After this treatment, plants were removed from the chamber to the greenhouse for normal maintaining, After the infection period, the plants were placed in the greenhouse. After 1 week, the plants were scored for disease control.
# [1] = system: mite (Tetranychus cinnabarinus); test: Acaricidal activity, airbrush spray, mite; conditions: mortality after 2-3 days
# Experimental: Compounds were dissolved in mixed solvent (acetone: methanol=1:1), and diluted to required concentration with water containing 0.1% of Tween 80.
# The second instar larvae of armyworm (Spodoptera exigua), diamond backmoth (Plutella xylostella), green peach aphids (Myzus persicae) and mite (Tetranychus cinnabarinus) were used in biological test. The method was employed either spraying by airbrush. A test solution (0.5 ml) was sprayed at the pressure of 0.7 kg/cm^2. Percent mortality was determined after 2-3 days.
# cucumber anthracnose = test: Fungicidal activity in vivo, cucumber anthracnose; conditions: plants sprayed, scored after 1 week
# Experimental: as §1, §2
# [2] = system: nymph of carmine spider mite; test: Control on nymph of carmine spider mite; type: in vivo
# carmine spider mite eggs = test: Inhibition activity on carmine spider mite eggs; type: in vivo
# corn rust = test: Fungicidal activity in vivo, corn rust; conditions: 25 mg/L, plants sprayed, scored after 1 week
# Experimental: as §1, §2
# wheat powdery mildew = test: Fungicidal activity in vivo, wheat powdery mildew; conditions: plants sprayed, scored after 1 week
# Experimental: as §1, §2
# [3] = system: armyworm (Spodoptera exigua); test: Insecticidal activity, airbrush spray, armyworm; type: in vivo; conditions: 600 mg/L, mortality after 2-3 days
# [4] = system: diamond backmoth (Plutella xylostella); test: Insecticidal activity, airbrush spray, diamond backmoth; type: in vivo; conditions: 600 mg/L, mortality after 2-3 days
# cucumber grey mold = test: Fungicidal activity in vitro, cucumber grey mold; type: cell-based; conditions: 2.8 mg/L, 24 hours incubation
Compound,control of rice blast (rice blast; 8.3 mg/L),control of rice blast (rice blast; 25 mg/L) [%],control of tomato late blight (tomato late blight) [%],control of cucumber downy mildew (cucumber downy mildew; 400 mg/L) [%],control of mite ([1]; 600 mg/L) [%],control of cucumber anthracnose (cucumber anthracnose; 25 mg/L) [%],control of cucumber anthracnose (cucumber anthracnose; 400 mg/L) [%],also measured
COC(=O)N(OC)c1ccccc1COc1cc(C2CC2)nc(Nc2ccccc2)n1 [Compound 664],about 80%,100,100,100,–,–,–,–
COC=C(C(=O)OC)c1ccccc1COc1cc(C(F)(F)F)nc(Nc2ccccc2)n1 [Compound 20],100%,100,100,100,100,100,100,control of rice blast (rice blast; 2.8 mg/L): 100%; control of mite ([1]; 150 mg/L): 100%; control on nymph of carmine spider mite ([2]; 10 mg/L): 90%; control on nymph of carmine spider mite ([2]; 20 mg/L): 100%; inhibition activity on carmine spider mite eggs (carmine spider mite eggs; 5 mg/L): 80%; inhibition activity on carmine spider mite eggs (carmine spider mite eggs; 10 mg/L): 100%
CON=C(C(=O)OC)c1ccccc1COc1cc(C)nc(Nc2ccccc2)n1 [Compound 676],100%,–,–,–,–,–,–,control of rice blast (rice blast; 2.8 mg/L): about 80%
COC(=O)N(OC)c1ccccc1COc1nc(Nc2ccccc2)nc(C)c1C [Compound 668],about 80%,100,100,100,–,–,100,–
COC=C(C(=O)OC)c1ccccc1COc1cc(C)nc(Nc2ccccc2)n1 [Compound 19],100%,100,100,100,–,100,100,control of corn rust (corn rust): 100%; control of rice blast (rice blast; 2.8 mg/L): 100%; control of cucumber downy mildew (cucumber downy mildew; 25 mg/L): 100%
COC=C(C(=O)OC)c1ccccc1COc1nc(Nc2ccccc2)nc(C)c1C [Compound 41],about 80%,100,100,100,–,100,100,control of corn rust (corn rust): 100%; control of rice blast (rice blast; 2.8 mg/L): about 80%; control of cucumber downy mildew (cucumber downy mildew; 25 mg/L): 100%
CNC(=O)N(OC)c1ccccc1COc1nc(Nc2ccccc2)nc(C)c1C [Compound 670],about 80%,–,–,–,–,100,–,–
COC=C(C(=O)OC)c1ccccc1COc1cc(C(F)(F)F)nc(N(C)C)n1 [Compound 680],–,–,–,–,–,–,–,control of wheat powdery mildew (wheat powdery mildew; 25 mg/L): 98%; control of wheat powdery mildew (wheat powdery mildew; 400 mg/L): 100%
CNC(=O)C(=NOC)c1ccccc1COc1nc(Nc2ccccc2)nc(C)c1C [Compound 669],–,–,–,–,–,100,–,control of corn rust (corn rust): 100%
CNC(=O)N(OC)c1ccccc1COc1cc(C2CC2)nc(Nc2ccccc2)n1 [Compound 666],100%,–,–,–,–,–,–,–
CO/N=C(/C(=O)OC)c1ccccc1COc1cc(C(F)(F)F)nc(Nc2ccccc2)n1 [Compound 229],about 80%,–,100,100,100,–,–,control of armyworm [3]: 100%
COC=C(C(=O)OC)c1ccccc1COc1cc(C(F)(F)F)nc(NC(C)C)n1 [Compound 682],–,–,–,–,100,–,–,–
COC=C(C(=O)OC)c1ccccc1COc1cc(C(F)(F)F)nc(Nc2ccc(C)c(C)c2)n1 [Compound 697],–,–,–,–,100,–,–,–
CON=C(C(=O)OC)c1ccccc1COc1cc(C2CC2)nc(Nc2ccccc2)n1 [Compound 232],about 80%,100,100,100,–,–,100,–
COC=C(C(=O)OC)c1ccccc1COc1cc(C(F)(F)F)nc(Nc2ccc(C)cc2C)n1 [Compound 693],–,–,–,–,100,–,–,–
COC=C(C(=O)OC)c1ccccc1COc1cc(C2CC2)nc(Nc2ccccc2)n1 [Compound 25],about 80%,100,100,100,100,100,100,control of corn rust (corn rust): 100%; control of cucumber downy mildew (cucumber downy mildew; 25 mg/L): 100%; control of diamond backmoth [4]: 100%
COC=C(C(=O)OC)c1ccccc1COc1cc(C(F)(F)F)nc(Nc2cccnc2Cl)n1 [Compound 691],–,–,–,–,100,–,–,control of mite ([1]; 40 mg/L): 100%
COC(=O)N(OC)c1ccccc1COc1cc(C(F)(F)F)nc(Nc2ccccc2)n1 [Compound 424],–,–,100,100,–,–,100,control of armyworm [3]: 100%
COC(=O)N(OC)c1ccccc1COc1cc(C)nc(Nc2ccccc2)n1 [Compound 677],100%,–,–,–,–,100,–,–
CNC(=O)N(OC)c1ccccc1COc1cc(Br)nc(Nc2ccccc2)n1 [Compound 475],about 80%,100,–,–,–,–,–,control of armyworm [3]: 100%
COC=C(C(=O)OC)c1ccccc1COc1cc(C(F)(F)F)nc(Nc2cccc(Cl)c2Cl)n1 [Compound 694],–,–,–,–,100,–,–,control of mite ([1]; 40 mg/L): 100%
CNC(=O)C(=NOC)c1ccccc1COc1cc(C2CC2)nc(Nc2ccccc2)n1 [Compound 665],about 80%,–,–,–,–,100,–,control of corn rust (corn rust): 100%
CON=C(C(=O)OC)c1ccccc1COc1nc(Nc2ccccc2)nc(C)c1C [Compound 667],100%,100,100,100,–,–,100,control of rice blast (rice blast; 2.8 mg/L): about 80%; control of cucumber grey mold (cucumber grey mold): about 50%; control of diamond backmoth [4]: 100%
CNC(=O)C(=NOC)c1ccccc1COc1cc(C)nc(Nc2ccccc2)n1 [Compound 678],–,–,–,–,–,100,–,–
COC=C(C(=O)OC)c1ccccc1COc1cc(C(F)(F)F)nc(NC2CCCCC2)n1 [Compound 701],–,–,–,–,–,–,–,control of mite ([1]; 40 mg/L): 100%
